Test results published in article PMC4459817, “Vasculotide reduces endothelial permeability and tumor cell extravasation in the absence of binding to or agonistic activation of Tie2” (EMBO Molecular Medicine, 2015).
Entries after “also recorded” stand apart in the source; their conditions may differ.

Tests used:
[1] = tested on: LM2-4luc lung metastases in SCID mice; assay: experimental LM2-4luc lung metastasis model (IV); assay type: in vivo, human LM2-4luc cells in CB-17 SCID mice; settings: for lung metastases by in vivo bioluminescent imaging: 24DPI, SU 60 mg/kg/day pretreatment, one-way ANOVA, Fig2B–D
Excerpt: (§1) (C and G) Photographs of typical metastases in the lungs and caudal lymphatics, respectively. […] Geometric means ± 95%CI are depicted in (D and H); P values were derived by one-way ANOVA (D) and Kruskal–Wallis test (H). […] TEXT PRINTED IN THE PICTURE: (A) Vasculotide (VT): Hazard ratio = 0.13 (95% CI, 0.03 to 0.63) | (A) SU+VT: Hazard ratio = 0.19 (95% CI, 0.04 to 0.81) DOUBTS OF THE COPYIST ABOUT THIS PICTURE: Vasculotide (VT), Hazard ratio: small print; 0.13 could be 0.15 or 0.18, and the CI limits 0.03 and 0.63 are uncertain in the digits 3/5/6/8 / SU+VT, Hazard ratio: small print; 0.19 could be 0.18 or 0.16, and the CI limits 0.04 and 0.81 are uncertain in the digits / Panel A: each hazard ratio is printed under a pair of legend entries (Vehicle / Vasculotide (VT), and Sunitinib (SU) / SU+VT). Assigning it to the VT-treated arm of each pair is my assumption.
In vivo experiments were performed in strict accordance with protocols approved by the Sunnybrook Research Institute Animal Care Committee, accredited by the Canadian Council of Animal Care. All surgical, imaging, and euthanasia procedures were performed under inhaled isoflurane anesthesia. Experimental metastasis models involved injections of 10^6 tumor cells, suspended in 200 μl serum-free DMEM, into the mouse tail vein. LM2-4^luc implantations were performed on 6 to 8-week-old female CB-17 SCID mice (Charles River Canada). HT29^luc implantations were performed on 19- to 20-week-old male and 11- to 12-week-old female YFP-SCID mice (bred in-house). SN12^luc implantations were performed on 9-week-old male YFP-SCID mice. Spontaneous metastasis models involved orthotopic implantations of 2 × 10^6 LM2-4^luc cells/50 μl serum-free DMEM in the right inguinal mammary fat pads of 6-week-old female CB-17 SCID mice.
Sunitinib malate (SU), from Pfizer or LC Laboratories, and its vehicle were formulated as described before (Ebos et al, [2009]). SU was administered by oral gavage (PO), once daily, at a dose of 60 mg/kg mouse weight. Vasculotide (VT): VT synthesized at the Sunnybrook Research Institute (Toronto, ON, Canada) was used in experiments described in Fig2(A–D) and Supplementary Fig S5(A and B). VT synthesized by American Peptide (Sunnyvale, CA, USA) was used in experiments described in Fig5. VT synthesized by Bachem UK Ltd was used in experiments described in Figs1, 2(E–H), 3, 4, 6–9, Supplementary Figs S2, and S5(C and D). Lyophilized product was reconstituted in PBS to 500 μg/500 μl stock aliquots and stored at −80°C. As needed, stock aliquots were diluted with PBS to a 250 ng/50 μl working concentration and stored in 0.4–1 ml aliquots at −80°C. VT (at a standard dose of 250 ng/mouse) or its vehicle (PBS) was administered to mice by intraperitoneal (IP) injections every other day.
5. Bioluminescence imaging (BI) of tumor burden
(§2) For in vivo BI: Mice were injected intraperitoneally with 150mg/kg luciferin (Promega) 10 minutes prior to and anesthetized with isofluorane just before luminescent pseudocolor imaging (uniform settings: CCD camera locked at -105 °C, exposure=60s, f/1, subject size=1.5cm, bin=8, FOV=23.2cm, full image correction) using the IVIS 200 Imaging System (Caliper/PerkinElmer). Using the Living Image software (v2.50.1, Xenogen), weekly images were analyzed under uniform color range on grayscale photographic overlay. Total fluxes (photons/sec) were quantified within consistent regions of interest and statistically compared ideally at a timepoint before any deaths have occurred. […]

[2] = tested on: LM2-4luc lymphatic metastases in SCID mice; assay: experimental LM2-4luc lymphatic metastasis model (IV); assay type: in vivo, human LM2-4luc cells in CB-17 SCID mice; settings: n = 12; for progression of lymphatic metastases (bioluminescence): VT 250 ng/2d, SU pretreatment, Kruskal–Wallis, Fig2F–H
Excerpt: as §1
In vivo experiments were performed in strict accordance with protocols approved by the Sunnybrook Research Institute Animal Care Committee, accredited by the Canadian Council of Animal Care. All surgical, imaging, and euthanasia procedures were performed under inhaled isoflurane anesthesia. Experimental metastasis models involved injections of 10^6 tumor cells, suspended in 200 μl serum-free DMEM, into the mouse tail vein. LM2-4^luc implantations were performed on 6 to 8-week-old female CB-17 SCID mice (Charles River Canada). […]
as §2

endothelial cells = settings: cells stimulated with sepsis-related mediators incl. thrombin; ref David et al, 2011; cited from earlier work
Excerpt: Thrombin is also a metastasis-associated factor that can promote endothelial adhesion and diapedesis of TCs (Nierodzik & Karpatkin, [2006]).

[3] = biological target: T1, mouse Tie2-Fc (Fc-conjugated extracellular domain of Tie2) (mouse, UniProt Q02858 23-746); assay: SPR
T1 chain: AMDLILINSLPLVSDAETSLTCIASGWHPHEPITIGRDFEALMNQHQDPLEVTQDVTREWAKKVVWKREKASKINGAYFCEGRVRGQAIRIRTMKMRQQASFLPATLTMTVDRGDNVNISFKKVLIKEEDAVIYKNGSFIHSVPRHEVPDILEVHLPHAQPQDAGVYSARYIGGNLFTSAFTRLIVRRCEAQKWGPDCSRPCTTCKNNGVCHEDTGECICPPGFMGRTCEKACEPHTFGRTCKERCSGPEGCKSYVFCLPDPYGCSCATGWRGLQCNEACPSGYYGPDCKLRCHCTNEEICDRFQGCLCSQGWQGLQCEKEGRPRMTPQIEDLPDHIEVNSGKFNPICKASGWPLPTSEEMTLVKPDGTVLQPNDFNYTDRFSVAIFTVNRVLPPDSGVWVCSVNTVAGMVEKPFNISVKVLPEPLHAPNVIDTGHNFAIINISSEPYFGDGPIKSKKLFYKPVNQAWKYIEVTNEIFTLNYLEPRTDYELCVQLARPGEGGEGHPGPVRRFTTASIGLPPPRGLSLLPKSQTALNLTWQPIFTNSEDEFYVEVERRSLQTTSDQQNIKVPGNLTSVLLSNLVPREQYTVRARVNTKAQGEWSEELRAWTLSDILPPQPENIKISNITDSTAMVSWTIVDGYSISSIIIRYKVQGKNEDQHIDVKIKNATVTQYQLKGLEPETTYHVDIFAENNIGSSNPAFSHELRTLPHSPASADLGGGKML

CHHHRHSF [Vasculotide, 4-armed maleimide-functionalized polyethylene glycol (PEG) backbone to link together four cysteine-capped T7 peptides, that is, CHHHRHSF]
lung metastases by in vivo bioluminescent imaging ([1]; VT 250 ng/2d, listed as VT): trend of reduced lung metastases; also recorded: effectively suppressing SU-induced promotion of lung metastases, as seen by IVBI (P < 0.05 | confirmatory repeats: VT trends on lung metastases and survival ([1]; Supplementary Fig S5): The same trends were reproduced | survival ([1]; VT 250 ng/2d, with or without SU 60 mg/kg/day pretreatment, n = 5–6, Fig2A, listed as VT): significant survival benefit (P = 0.01); also recorded: prolonged median survival | extension of median survival ([1]; VT 250 ng/2d IP monotherapy, n = 5–6, Fig2A): ~20% | progression of lymphatic metastases (bioluminescence) [2]: no significant effect on survival rates (Fig2E) or the progression of lymphatic metastases | survival rates ([2]; VT, Fig2E, listed as VT): no significant effect on survival rates | endothelial barrier integrity (endothelial cells): preserve endothelial barrier integrity

CCN(CC)CCNC(=O)c1c(C)[nH]c(/C=C2\C(=O)Nc3ccc(F)cc32)c1C [sunitinib, reference compound]
lung metastases by in vivo bioluminescent imaging ([1]; VT 250 ng/2d, listed as SU): promoted lung metastases; also recorded: preferentially accelerated experimental lung metastasis, but not lymphatic metastasis | progression of lymphatic metastases (bioluminescence) ([2]; listed as SU): did not similarly promote lymphatic metastases; also recorded: did not accelerate their progression

B1: recombinant human Ang1 (rhAng1) (ligand, UniProt Q15389 16-498, looked up)
chain: HIGCSNQRRSPENSGRRYNRIQHGQCAYTFILPEHDGNCRESTTDQYNTNALQRDAPHVEPDFSSQKLQHLEHVMENYTQWLQKLENYIVENMKSEMAQIQQNAVQNHTATMLEIGTSLLSQTAEQTRKLTDVETQVLNQTSRLEIQLLENSLSTYKLEKQLLQQTNEILKIHEKNSLLEHKILEMEGKHKEELDTLKEEKENLQGLVTRQTYIIQELEKQLNRATTNNSVLQKQQLELMDTVHNLVNLCTKEGVLLKGGKREEEKPFRDCADVYQAGFNKSGIYTIYINNMPEPKKVFCNMDVNGGGWTVIQHREDGSLDFQRGWKEYKMGFGNPSGEYWLGNEFIFAITSQRQYMLRIELMDWEGNRAYSQYDRFHIGNEKQNYRLYLKGHTGTAGKQSSLILHGADFSTKDADNDNCMCKCALMLTGGWWFDACGPSNLNGMFYTAGQNHGKLNGIKWHYFKGPSYSLRSTTMMIRPLDF
notes: angiopoietin-1, human, recombinant; also called angiopoietin-1; source: bought: R&D Systems (named for the Boyden chamber experiments)
koff [3]: 0.00033 s⁻¹
